Each structure is given as a SMILES string. Where “and” joins values, the source holds several entries; their conditions need not be identical. Identical values can stand only once.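 Cultured in 96-well plates, cells were exposed to test compound for 48 hours across five concentrations. Here, GI50 denotes the concentration required for 50% inhibition of growth. TGI is the concentration that stops growth completely.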

Among the test systems are KM12 colon; SNB-19 CNS; OVCAR-8 ovarian; M14 melanoma; SK-MEL-2 melanoma; DU-145 prostate; ACHN renal; UO-31 renal; LOX IMVI melanoma; UACC-257 melanoma.
Holding throughout (assay): NCI anticancer screen, dose series, 48 h

On to `O=C1C=CC(=O)c2cc(Sc3ccccc3)c(=O)ccc21`, for which the TGI in the assay on KM12 colon turned out to be 34.4 µM; in the assay on SNB-19 CNS, 38.1 µM; with OVCAR-8 ovarian, 33.9 µM; in the assay on M14 melanoma it was 41.3 µM; in the assay on SK-MEL-2 melanoma it was 28.7 µM; in the assay on DU-145 prostate, 31.5 µM. The TGI was determined as 23.3 µM in the assay with ACHN renal, 30.5 µM with UO-31 renal, 27.7 µM with LOX IMVI melanoma and 33.6 µM with UACC-257 melanoma.
For the compound `COc1ccc(C(=O)c2cc3c(N)c(C(=O)Nc4ccc(C)cc4)sc3nc2C)cc1`, the GI50 with KM12 colon is 2.44 µM; in the assay with SNB-19 CNS, 4.22 µM; with OVCAR-8 ovarian it was 5.25 µM; with M14 melanoma, 1.99 µM; in the assay on SK-MEL-2 melanoma, 4.04 µM; in the assay on DU-145 prostate, 3.63 µM. Besides, the GI50 with ACHN renal was 5.28 µM; with UO-31 renal, 3.11 µM; with LOX IMVI melanoma, 4.94 µM; with UACC-257 melanoma it was 20.4 µM. The TGI was over 100 µM with KM12 colon; 30.9 µM with SNB-19 CNS; over 100 µM in the assay with OVCAR-8 ovarian; 62.9 µM with M14 melanoma; 34.7 µM with SK-MEL-2 melanoma; 27.4 µM in the assay on DU-145 prostate. For the same compound, the TGI in the assay on ACHN renal is 29.2 µM; in the assay on UO-31 renal, 27.3 µM; in the assay on LOX IMVI melanoma, over 100 µM; in the assay on UACC-257 melanoma it was over 100 µM.
Take `N#CC1=C(N)NC(N2CCOCC2)=NC12Nc1ccccc1N2`: the GI50 in the assay on KM12 colon is over 100 µM; with SNB-19 CNS it was 40 µM; in the assay on OVCAR-8 ovarian, 37.5 µM; with M14 melanoma it was over 100 µM; in the assay on SK-MEL-2 melanoma, 20.1 µM; with DU-145 prostate it was 63.6 µM. Moreover, the GI50 in the assay with ACHN renal was 33.3 µM; in the assay on UO-31 renal, 12.5 µM; with LOX IMVI melanoma it was 23.5 µM; in the assay on UACC-257 melanoma, 22.9 µM. The TGI in the assay on KM12 colon is over 100 µM; in the assay on SNB-19 CNS, over 100 µM; in the assay with OVCAR-8 ovarian, over 100 µM; with M14 melanoma it was over 100 µM; in the assay with SK-MEL-2 melanoma, 47.4 µM; in the assay on DU-145 prostate it was over 100 µM. Moreover, the TGI in the assay with ACHN renal was over 100 µM; in the assay with UO-31 renal it was 81.4 µM; in the assay on LOX IMVI melanoma it was 62.5 µM; with UACC-257 melanoma it was 49.1 µM.
As for `CC(C)(C)[Si](C)(C)OC1[C@@H](O[Si](C)(C)C(C)(C)C)[C@@H](CNC(=O)NC(=O)CCl)O[C@H]1n1cnc2c(NC(=O)Nc3ccccc3)ncnc21` (stereo not given in full), the GI50 in the assay on KM12 colon is 1.04 µM; in the assay on SNB-19 CNS, 1.11 µM; in the assay on OVCAR-8 ovarian it was 0.307 µM; in the assay with M14 melanoma it was 0.978 µM; in the assay on SK-MEL-2 melanoma, 1.13 µM; with DU-145 prostate, 1.73 µM. Further, the GI50 in the assay with ACHN renal was 0.782 µM; in the assay with UO-31 renal it was 0.0763 µM; in the assay on LOX IMVI melanoma it was 0.0829 µM; in the assay with UACC-257 melanoma, 0.884 µM. The TGI in the assay with KM12 colon is 3.64 µM; with SNB-19 CNS it was 3.96 µM; with OVCAR-8 ovarian it was 1.42 µM; with M14 melanoma, 1.98 µM; in the assay on SK-MEL-2 melanoma, 2.01 µM; with DU-145 prostate, 5.32 µM. For the same compound, the TGI in the assay with ACHN renal was determined as 1.54 µM; with UO-31 renal it was 0.2 µM; in the assay with LOX IMVI melanoma, 0.18 µM; in the assay with UACC-257 melanoma, 1.89 µM.
`Nc1ccn(C2OC(COC(=O)C34CC5CC(CC(C5)C3)C4)C(O)C2O)c(=O)n1` (stereo not given): the TGI in the assay on KM12 colon, in the assay with SNB-19 CNS, with OVCAR-8 ovarian, in the assay with M14 melanoma, in the assay with SK-MEL-2 melanoma and in the assay on DU-145 prostate was over 100 µM throughout. In addition, the TGI with ACHN renal, in the assay on UO-31 renal, with LOX IMVI melanoma and in the assay with UACC-257 melanoma was over 100 µM in each case.
`CCN(CC)CCCNC(=O)c1c2c(n3ccccc13)C(=O)c1ncccc1C2=O`: the GI50 in the assay on KM12 colon is 0.44 µM; in the assay on SNB-19 CNS, 1.09 µM; with OVCAR-8 ovarian, 0.486 µM; in the assay with M14 melanoma, 0.764 µM; with SK-MEL-2 melanoma, 1.7 µM; in the assay with DU-145 prostate, 1.23 µM. Moreover, the GI50 was 0.395 µM in the assay with ACHN renal, 1.59 µM in the assay on UO-31 renal, 0.391 µM in the assay with LOX IMVI melanoma and 0.491 µM with UACC-257 melanoma. Moreover, the TGI stood at 6.33 µM in the assay on KM12 colon; 2.67 µM in the assay on SNB-19 CNS; 2.07 µM in the assay on OVCAR-8 ovarian; 2.25 µM in the assay on M14 melanoma; 3.89 µM in the assay with SK-MEL-2 melanoma; 2.56 µM in the assay on DU-145 prostate. The TGI with ACHN renal was 3.16 µM; in the assay with UO-31 renal, 5.07 µM; with LOX IMVI melanoma, 1.8 µM; with UACC-257 melanoma, 1.71 µM.
As to `CCn1c(-c2cc3ccccc3cc2O)nn(C(=O)c2c(Cl)cccc2Cl)c1=S`, the GI50 in the assay with KM12 colon was over 50 µM; with SNB-19 CNS, over 50 µM; with OVCAR-8 ovarian, over 50 µM; with M14 melanoma it was 7.11 µM; in the assay with SK-MEL-2 melanoma it was 9.05 µM; in the assay with DU-145 prostate, 41.1 µM. Also, the GI50 in the assay on ACHN renal is 16.2 µM; in the assay on UO-31 renal, 10.5 µM; in the assay with LOX IMVI melanoma, over 50 µM; in the assay with UACC-257 melanoma it was over 50 µM. In addition, the TGI in the assay with KM12 colon is over 50 µM; with SNB-19 CNS, over 50 µM; in the assay on OVCAR-8 ovarian, over 50 µM; with M14 melanoma it was 21.9 µM; in the assay with SK-MEL-2 melanoma, 21.1 µM; with DU-145 prostate, over 50 µM. Moreover, the TGI is over 50 µM in the assay with ACHN renal, 24.8 µM with UO-31 renal, over 50 µM in the assay with LOX IMVI melanoma and over 50 µM in the assay with UACC-257 melanoma.
With `Cc1sc2c(c1C)C(c1ccc(Cl)cc1)=N[C@@H](CC(=O)OC(C)(C)C)c1nnc(C)n1-2`, the GI50 was 2.57 µM and 0.962 µM in the assay on KM12 colon; 0.629 µM and 0.421 µM in the assay on SNB-19 CNS; 0.875 µM and 0.62 µM in the assay on OVCAR-8 ovarian; 0.436 µM and 0.772 µM in the assay on M14 melanoma; 5.51 µM and 5.34 µM in the assay with SK-MEL-2 melanoma; 13.4 µM and 8.51 µM with DU-145 prostate. Also, the GI50 was 0.67 µM and 0.496 µM in the assay on ACHN renal; 0.0634 µM and 0.0301 µM in the assay on UO-31 renal; 0.22 µM and 0.0673 µM in the assay with LOX IMVI melanoma; 0.313 µM and 0.146 µM with UACC-257 melanoma. Also, the TGI was 23.1 µM and 20.1 µM in the assay on KM12 colon; > 47.2 µM and 18.9 µM with SNB-19 CNS; 26.8 µM and 20.5 µM in the assay on OVCAR-8 ovarian; 19.6 µM and 21.7 µM with M14 melanoma; 21.8 µM and 22.5 µM with SK-MEL-2 melanoma; 33.3 µM and 22.1 µM in the assay with DU-145 prostate. In addition, the TGI with ACHN renal is 18.3 µM and 15.8 µM; with UO-31 renal, 13.8 µM and 14.2 µM; with LOX IMVI melanoma, 11.2 µM and 13.9 µM; in the assay with UACC-257 melanoma it was 19.5 µM and 17 µM.
